These results are taken from patent publication US10906888B2, “Pyrimidine carboxamides as inhibitors of Vanin-1 enzyme” (Pfizer Inc., priority 2016, dated 2021).

By IC50 is commonly meant the concentration at which inhibition is half-maximal. Low values mean greater potency, high ones weaker potency.

The structures appear in SMILES notation.

The target of this assay is human vanin-1 (Homo sapiens (Human), UniProt O95497). Kind of assay: Human Vanin-1 Enzyme Assay 1. Type of assay: biochemical. The conditions noted are these: 25 pM human vanin-1, 50 uM pantetheine 7-amino-4-trifluoromethylcoumarin substrate. The procedure: Human Vanin-1Enzyme Assay 1.
human vanin-1, sequence (O95497 22-491): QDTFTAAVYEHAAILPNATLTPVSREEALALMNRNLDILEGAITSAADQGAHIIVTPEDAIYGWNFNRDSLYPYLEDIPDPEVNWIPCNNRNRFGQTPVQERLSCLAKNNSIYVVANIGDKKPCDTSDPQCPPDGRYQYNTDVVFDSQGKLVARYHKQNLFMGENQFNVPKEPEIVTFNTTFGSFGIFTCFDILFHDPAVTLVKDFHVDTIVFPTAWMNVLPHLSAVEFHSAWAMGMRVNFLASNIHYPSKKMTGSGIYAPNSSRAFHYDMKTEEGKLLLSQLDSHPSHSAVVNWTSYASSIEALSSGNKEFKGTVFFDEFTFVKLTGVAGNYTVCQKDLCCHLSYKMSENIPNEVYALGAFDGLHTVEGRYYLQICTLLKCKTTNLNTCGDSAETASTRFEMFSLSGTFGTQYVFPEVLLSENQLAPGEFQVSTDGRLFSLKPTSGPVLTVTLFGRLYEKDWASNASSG
The in vitro assay measures enzymatic cleavage of the fluorescently-labeled vanin substrate, pantetheine 7-amino-4-trifluoromethylcoumarin, by human vanin-1.
The vanin-1 protein was prepared in-house from a construct expressing the extracellular domain of human vanin-1 (GenBank ID NM_004666) preceded N-terminally by the honey bee melittin signal peptide, a GSG linker sequence, a His6× tag and a FLAG tag. The secreted, soluble enzyme was purified from the conditioned medium from a CHO cell line stably expressing the resulting protein. Enzyme purification was performed through sequential Ni NTA and size-exclusion chromatography steps.
Intermediate concentrations were prepared by diluting in DMSO in a four-fold series for a total of 11 data points.
To begin the assay 100 nL was transferred from the compound plate to the assay plate. Next, 15 μL of the vanin-1 working solution were transferred to the assay plate. The inhibitor and enzyme were incubated at room temperature for 30 minutes. The enzyme reaction was then initiated by the addition of 5 μL of 200 μM pantetheine 7-amino-4-trifluoromethylcoumarin prepared in assay buffer. […] The final concentration of DMSO was 0.5%.
`O=C(c1cnc(NCc2cccnc2)nc1)N1C[C@H]2CCC[C@@H](O)[C@H]2C1` (relative stereo) [Example 3] yielded a 50% inhibitory concentration (IC50) of 0.00169 µM. Compound `O=C(c1cnc(NC2(c3cncnc3)CC2)nc1)N1C[C@@H]2CCCC[C@]2(CO)C1` (relative stereo) [Example 61] returned a half-maximal inhibitory concentration (IC50) of 0.00251 µM. The compound `C[C@H]1CN(C(=O)c2cnc(NC3(c4cncnc4)CC3)nc2)C[C@]1(C)CO` (relative stereo) [Example 62] yielded an IC50 of 0.00392 µM. `O=C(c1cnc(NC2(c3cncnc3)CC2)nc1)N1CCC(C(F)(F)F)C1` (single isomer, unassigned) [Example 194] showed an IC50 of 0.0202 µM.

For the compound `N#CC1CCCN(C(=O)c2cnc(NC3(c4cncnc4)CC3)nc2)C1` (single isomer, unassigned) [Example 197], the IC50 amounted to 0.00522 µM. The same measure for `CS(=O)(=O)C1CCCN(C(=O)c2cnc(NC3(c4cncnc4)CC3)nc2)C1` (single isomer, unassigned) [Example 199]: 1.18 µM; for `CCC1(CO)CCN(C(=O)c2cnc(NC3(c4cncnc4)CC3)nc2)C1` (single isomer, unassigned) [Example 201]: 0.000582 µM. Consider `CCC1(CO)CCN(C(=O)c2cnc(NC3(c4cncnc4)CC3)nc2)C1` (single isomer, unassigned) [Example 202], for which half-maximal inhibition (IC50) was put at 0.0143 µM. On to `O=C(c1cnc(NCc2cccnc2)nc1)N1CCC2(CCOCC2)C1` [Example 1], for which it took 0.00131 µM to reach half-maximal inhibition (IC50). `O=C(c1cnc(NCc2cccnc2)nc1)N1CC2(CCOCC2)C1` [Example 2] had an IC50 of 0.00133 µM.

In the case of `CCC1(CO)CCN(C(=O)c2cnc(NCc3cccnc3)nc2)C1` (stereo not shown) [Example 4], the IC50 stood at 0.00858 µM.

In the case of `O=C(c1cnc(NCc2cccnc2)nc1)N1CC(O)(C2CC2)C1` [Example 5], the IC50 turned out to be 0.016 µM. `C[C@H]1CN(C(=O)c2cnc(NCc3cccnc3)nc2)C[C@@H]1CO` [Example 6] showed an IC50 of 0.0179 µM. As for `O=C(c1cnc(NCc2cccnc2)nc1)N1CCC(C(F)(F)F)C1` (stereo not shown) [Example 7], the 50% inhibitory concentration (IC50) came out at 0.0179 µM. The compound `O=C(c1cnc(NCc2cccnc2)nc1)N1CCn2ccnc2C1` [Example 8] yielded an IC50 of 0.0371 µM. `CC1(O)CCN(C(=O)c2cnc(NCc3cccnc3)nc2)CC1` [Example 9] yielded an IC50 of 0.0481 µM. `CCOC1CCN(C(=O)c2cnc(NCc3cccnc3)nc2)C1` (stereo not shown) [Example 10]: 0.0759 µM corresponded to half-maximal inhibition (IC50).

For the compound `O=C(c1cnc(NCc2cccnc2)nc1)N1CCC(CO)C1` (stereo not shown) [Example 11], the 50% inhibitory concentration (IC50) is 0.0817 µM. Compound `CO[C@@H]1[C@@H]2CC[C@H]1CN(C(=O)c1cnc(NCc3cccnc3)nc1)C2` [Example 12] came in with a 50% inhibitory concentration (IC50) of 0.0941 µM. For `NC(=O)C1CCCN(C(=O)c2cnc(NCc3cccnc3)nc2)C1` (stereo not shown) [Example 13], the IC50 amounted to 0.101 µM. `N#CCC1CCCCN1C(=O)c1cnc(NCc2cccnc2)nc1` (stereo not shown) [Example 14] displayed an IC50 of 0.156 µM. `CC1(CO)CCN(C(=O)c2cnc(NCc3cccnc3)nc2)CC1` [Example 15] yielded an IC50 of 0.22 µM. The compound `O=C(c1cnc(NCc2cccnc2)nc1)N1CC(O)C1` [Example 16] returned an IC50 of 0.323 µM.

Consider `O=C(c1cnc(NCc2cccnc2)nc1)N1CCC(F)(CO)CC1` [Example 17], for which the IC50 turned out to be 0.328 µM. The same measure for `O=C(c1cnc(NCc2cccnc2)nc1)N1C[C@@H]2[C@@H](CO)[C@@H]2C1` [Example 18]: 0.385 µM. For `O=C(c1cnc(NCc2cccnc2)nc1)N1Cc2ccccc2C1` [Example 19], the half-maximal inhibitory concentration (IC50) was determined as 0.407 µM. The same measure for `O=C(c1cnc(NCc2cccnc2)nc1)N1CCOCC(O)C1` (stereo not shown) [Example 20]: 0.453 µM.

Take `O=C(c1cnc(NCc2cccnc2)nc1)N1CCC(O)CC1` [Example 21]: the IC50 was determined as 0.528 µM. The compound `O=C(c1cnc(NCc2cccnc2)nc1)N1CCCC(O)C1` (stereo not shown) [Example 22] returned an IC50 of 0.559 µM. On to `CC(=O)NC1CCCN(C(=O)c2cnc(NCc3cccnc3)nc2)C1` (stereo not shown) [Example 23], for which the IC50 was determined as 0.613 µM. For the compound `CC(=O)N1CCN(C(=O)c2cnc(NCc3cccnc3)nc2)CC1` [Example 24], the midpoint of inhibition, the IC50, lay at 0.749 µM. The same measure for `O=C(c1cnc(NCc2cccnc2)nc1)N1CCC(O)C1` (stereo not shown) [Example 25]: 1.04 µM; for `CC1(O)CCCN(C(=O)c2cnc(NCc3cccnc3)nc2)C1` (stereo not shown) [Example 26]: 1.23 µM. `O=C(c1cnc(NCc2cccnc2)nc1)N1CC2CCC(CC2)C1` [Example 27] had an IC50 of 1.37 µM. Take `O=C(c1cnc(NCc2cccnc2)nc1)N1[C@@H]2CC[C@H]1C[C@@H](O)C2` [Example 28]: half-maximal inhibition (IC50) was put at 1.55 µM. As for `NC(=O)C1CCN(C(=O)c2cnc(NCc3cccnc3)nc2)CC1` [Example 29], the IC50 was 1.92 µM. The same measure for `NC(=O)CC1CCN(C(=O)c2cnc(NCc3cccnc3)nc2)CC1` [Example 30]: 2.17 µM; for `O=C(c1cnc(NCc2cccnc2)nc1)N1CCCC2(COC2)C1` [Example 31]: 3.09 µM. For the compound `NC(=O)[C@@H]1CCCN1C(=O)c1cnc(NCc2cccnc2)nc1` [Example 32], half-maximal inhibition (IC50) was put at 20 µM. For `O=C(c1cnc(NC2(c3cncnc3)CC2)nc1)N1C[C@H]2CC[C@@H](C1)O2` [Example 33], half-maximal inhibition (IC50) required 0.108 µM. The same measure for `O=C(c1cnc(NC2(c3cncnc3)CC2)nc1)N1CCC2(CCO2)CC1` [Example 34]: 0.0472 µM; for `O=C(c1cnc(NC2(c3cncnc3)CC2)nc1)N1CCN2C[C@@H](F)C[C@H]2C1` [Example 35]: 0.00542 µM.

For `CCC1COC(=O)N1C1CCN(C(=O)c2cnc(NC3(c4cncnc4)CC3)nc2)CC1` (stereo not shown) [Example 36], half-maximal inhibition (IC50) required 1 µM.

`CCC1(CC)CCN(C(=O)c2cnc(NC3(c4cncnc4)CC3)nc2)C1` [Example 37] registered an IC50 of 0.000504 µM. In turn, `CC1COCCN(C(=O)c2cnc(NC3(c4cncnc4)CC3)nc2)C1` (stereo not shown) [Example 38] returned a concentration for half-maximal inhibition (IC50) of 0.0626 µM. Take `CC1CCCN(C(=O)c2cnc(NC3(c4cncnc4)CC3)nc2)C1` (stereo not shown) [Example 39]: the concentration for half-maximal inhibition (IC50) worked out at 0.00944 µM.

In turn, `CC(C)[C@H]1C[C@@H](O)CN(C(=O)c2cnc(NC3(c4cncnc4)CC3)nc2)C1` [Example 40] had an IC50 of 0.0269 µM. In turn, `O=C(c1cnc(NC2(c3cncnc3)CC2)nc1)N1CCN2CCCCCC2C1` (stereo not shown) [Example 41] had a 50% inhibitory concentration (IC50) of 0.045 µM. The same measure for `O=C(c1cnc(NC2(c3cncnc3)CC2)nc1)N1CCCOCC1` [Example 42]: 0.0351 µM. The same measure for `O=C(c1cnc(NC2(c3cncnc3)CC2)nc1)N1CCC(c2cc[nH]n2)C1` (stereo not shown) [Example 43]: 0.00135 µM; for `C[C@@H]1CN(C(=O)c2cnc(NC3(c4cncnc4)CC3)nc2)C[C@H](C)C1O` (stereo partly shown) [Example 44]: 2.27 µM; for `O=C(c1cnc(NC2(c3cncnc3)CC2)nc1)N1CCCC[C@H]1CO` [Example 45]: 1.85 µM.

Consider `CCC1(C)CCN(C(=O)c2cnc(NC3(c4cncnc4)CC3)nc2)CC1` [Example 46], for which inhibition was half-maximal at 0.00629 µM (IC50).

`C[C@H]1CCCN1C(=O)c1cnc(NC2(c3cncnc3)CC2)nc1` [Example 47] returned an IC50 of 0.0296 µM.

`O=C(c1cnc(NC2(c3cncnc3)CC2)nc1)N1C[C@@H](F)C[C@@H]1CO` [Example 48] came in with a 50% inhibitory concentration (IC50) of 20 µM. Take `O=C(c1cnc(NC2(c3cncnc3)CC2)nc1)N1CCC2(CCCC2)CC1` [Example 49]: the IC50 is 0.0075 µM. `O=C(c1cnc(NC2(c3cncnc3)CC2)nc1)N1CCC2(CCCCO2)CC1` [Example 50] came in with an IC50 of 0.0199 µM. Turning to `CO[C@H]1CCN(C(=O)c2cnc(NC3(c4cncnc4)CC3)nc2)C1` [Example 51], inhibition was half-maximal at 0.0975 µM (IC50). The same measure for `O=C(c1cnc(NC2(c3cncnc3)CC2)nc1)N1CCOC2(CCCC2)C1` [Example 52]: 0.0603 µM. Compound `O=C(c1cnc(NC2(c3cncnc3)CC2)nc1)N1C[C@@H](CO)[C@H](C(F)(F)F)C1` [Example 53] returned an IC50 of 0.0122 µM. Compound `CC1CC2(CCN(C(=O)c3cnc(NC4(c5cncnc5)CC4)nc3)C2)CC(C)O1` (stereo not shown) [Example 54] gave an IC50 of 0.000283 µM. With `C[C@H]1COCCN1C(=O)c1cnc(NC2(c3cncnc3)CC2)nc1` [Example 55], the IC50 was 2.52 µM. `O=C(c1cnc(NC2(c3cncnc3)CC2)nc1)N1CCC2(CCCO2)CC1` [Example 56] gave a concentration for half-maximal inhibition (IC50) of 0.0249 µM. The same measure for `CN1CC2(CCN(C(=O)c3cnc(NC4(c5cncnc5)CC4)nc3)CC2)OC1=O` [Example 57]: 0.611 µM. As to `C[C@@H]1CN(C(=O)c2cnc(NC3(c4cncnc4)CC3)nc2)[C@H](C)CO1` [Example 58], it took 0.116 µM to reach half-maximal inhibition (IC50). Consider `O=C(c1cnc(NC2(c3cncnc3)CC2)nc1)N1CCC(C(O)C(F)(F)F)CC1` (stereo not shown) [Example 60], for which 2.85 µM corresponded to half-maximal inhibition (IC50). The compound `O=C(c1cnc(NC2(c3cncnc3)CC2)nc1)N1CCC(C(F)(F)F)CC1` [Example 63] yielded a concentration for half-maximal inhibition (IC50) of 0.421 µM.

`O=C(c1cnc(NC2(c3cncnc3)CC2)nc1)N1CC2C(C1)C2C(F)(F)F` (stereo not shown) [Example 64] displayed an IC50 of 0.1 µM. `Cc1cc(C2CCN(C(=O)c3cnc(NC4(c5cncnc5)CC4)nc3)C2)[nH]n1` (stereo not shown) [Example 65]: the IC50 is 0.00182 µM. `O=C(c1cnc(NC2(c3cncnc3)CC2)nc1)N1CCC[C@H]1CO` [Example 66] had a half-maximal inhibitory concentration (IC50) of 0.231 µM. The same measure for `C[C@@H]1CN(C(=O)c2cnc(NC3(c4cncnc4)CC3)nc2)C[C@H](C)O1` [Example 67]: 4.24 µM; for `O=C(c1cnc(NC2(c3cncnc3)CC2)nc1)N1CCC(F)CC1` [Example 68]: 0.00813 µM. The same measure for `O=C(c1cnc(NC2(c3cncnc3)CC2)nc1)N1CC2CCCC2C1` (stereo not shown) [Example 69]: 0.00185 µM.
